Laboratory results taken from a compilation of properties of binary mixtures (doi:10.1007/s10953-023-01246-7).

Experiment: xn = mol fraction of the nth substance listed
Conditions: 100 kPa

CCOS(=O)(=O)[O-].CC[n+]1ccn(C)c1 + OCCO
viscosity [mPa·s]
Conditions	x1 = 0.1003	x1 = 0.1982	x1 = 0.2999	x1 = 0.4002	x1 = 0.5005	x1 = 0.5992	x1 = 0.6994	x1 = 0.8001	x1 = 0.8993
293.15 K	–	17.96	–	25.17	32.09	40.31	54.7	70.3	99.9
298.15 K	14.75	15.08	17.32	21.18	26.88	33.49	44.9	56.9	78.4
303.15 K	12.28	12.75	14.69	17.95	22.71	–	–	46.47	62.8
308.15 K	10.4	–	–	15.42	19.35	23.73	31.11	38.47	51.2
313.15 K	8.88	–	10.94	13.31	16.65	20.23	26.27	32.2	42.22
318.15 K	7.67	–	9.49	–	14.46	17.49	22.38	–	–
323.15 K	–	7.16	8.38	10.19	12.56	15.18	19.32	23.28	29.87
328.15 K	5.8	6.26	7.45	9.03	11.07	13.32	16.79	20.18	25.55
333.15 K	–	–	6.62	8.07	–	11.79	14.74	17.49	22.02
338.15 K	4.53	4.97	5.94	7.19	8.77	–	13.02	15.39	19.13
343.15 K	4.03	4.47	5.33	6.46	–	–	11.55	–	16.8
